Test results from patent US20060135480A1, “Derivatives of succinic and glutaric acids and analogs thereof useful as inhibitors of phex” (Enobia Pharma, priority 2002, published 2006).

Columns and labels:
[1] = molecular target: T1, sPHEX (Homo sapiens, UniProt P78562); test: Protection of PHEX substrate PTHrP107-139 from sPHEX degradation (RP-HPLC); format: biochemical; conditions: 1×10^−5 M inhibitor, 15 min preincubation, 30 min at 37° C.
T1 construct: The soluble form of the metallopeptidase PHEX (sPHEX) was purified to homogeneity; made in house
T1 sequence (P78562 53-749 limits assumed): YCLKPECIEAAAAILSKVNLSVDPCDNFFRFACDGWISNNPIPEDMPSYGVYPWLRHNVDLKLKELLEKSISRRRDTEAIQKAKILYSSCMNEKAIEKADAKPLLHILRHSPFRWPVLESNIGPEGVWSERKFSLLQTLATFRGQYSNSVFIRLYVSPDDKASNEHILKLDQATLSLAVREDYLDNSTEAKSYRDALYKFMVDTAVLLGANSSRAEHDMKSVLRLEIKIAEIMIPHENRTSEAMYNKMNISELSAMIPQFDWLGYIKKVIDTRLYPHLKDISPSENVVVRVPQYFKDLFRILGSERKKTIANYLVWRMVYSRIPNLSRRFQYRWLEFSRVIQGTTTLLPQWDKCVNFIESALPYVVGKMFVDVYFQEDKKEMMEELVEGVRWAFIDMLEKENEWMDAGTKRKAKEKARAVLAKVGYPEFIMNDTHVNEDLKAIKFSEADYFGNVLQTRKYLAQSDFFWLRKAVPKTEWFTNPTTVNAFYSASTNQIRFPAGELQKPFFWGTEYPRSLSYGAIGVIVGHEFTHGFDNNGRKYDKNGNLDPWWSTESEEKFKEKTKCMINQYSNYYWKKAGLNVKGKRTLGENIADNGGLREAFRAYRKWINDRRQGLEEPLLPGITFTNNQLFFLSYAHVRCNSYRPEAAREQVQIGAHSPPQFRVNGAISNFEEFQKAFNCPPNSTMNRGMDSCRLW
Experimental: In general, in order to show inhibition of sPHEX, the enzyme is incubated in the absence or the presence of the inhibiting compound, and a substrate is added in conditions that are suitable for sPHEX enzymatic activity. Hydrolysis of the substrate in the absence or the presence of the inhibiting compound is monitored.
For example, 1.0 μg of purified sPHEX was first incubated at 37° C. for 15 min with or without 1×10^−5M of compound MH-2-64C (FIG. 1) in 90 μl 50 mM MES (2-(N-morpholino) ethanesulfonic acid) pH 6.5, 150 mM NaCl. Then, 2.5 μg of peptide PTHrP107-139 in 10 μl of the same buffer were added and the incubation continued for 30 min. The reaction mixture also contained 1.3 μg of the amino acid Phe which was used as an internal standard. After the incubation period, the reaction was stopped by the addition of EDTA to a final concentration of 5 mM. Detection of cleavage products was performed by reverse phase high performance liquid chromatography (RP-HPLC) on a C18 μBondapak™ analytical column (Waters, Mississauga, ON, Canada) with a UV detector set at 220 nm. […] Results were quantified by comparing the area under the undigested peak of PTHrP107-139, after normalization for the amount of Phe present in the sample.

[2] = test system: primary rat calvaria osteoblasts; test: Mineralization by 45Ca incorporation in cultured rat calvaria osteoblasts; format: cell-based; conditions: fetal rat calvaria cells
Experimental: In general, to show stimulation of mineralization in cultured cells by PHEX inhibitors, cells of osteoblast lineage are incubated in conditions that favors the mineralization process in the absence and the presence of the PHEX inhibiting compound. This cellular model is used to study osteoblasts proliferation and differentiation, and to follow the mineralization process.
Mineralization can be monitored by standard techniques such as von Kossa staining or ^45Ca incorporation in the extracellular matrix.
For example, cells were enzymatically isolated from the calvaria of 21-day old Wistar rat fetuses by sequential digestion with collagenase as described previously (Bellows et al., 1986). Cells obtained from the last four of the five digestion steps were plated in T-75 flasks in α-MEM containing 15% FBS (Cansera) and antibiotics comprising 100 μg/ml penicillin G (Sigma-Aldrich), 50 μg/ml gentamycin (Life Technologies), and 0.3 μg/ml fungizone (Life Technologies). […]
At day 18, 21 and 25 of rat calvaria osteoblasts culture, mineralization was determined by ^45Ca incorporation assay as described previously (Ecarot et Desbarats, 1999). […] Cell layers were solubilized in 12.5% trichloroacetic acid and aliquots counted for radioactivity.

degradation of PTHrP107-139 by sPHEX [1]: fully prevented
Compound: O=C(O)CC(CC(=O)NO)C(=O)NCCc1ccc(-c2ccccc2)cc1 (stereo not drawn) [Example 126, 3-(2-Biphenyl-4-yl-ethylcarbamoyl)4-hydroxycarbamoyl-butyric acid]
45Ca incorporation by the cells (mineralization) ([2]; 1×10^−5 M (high dose)): reduced significantly
45Ca incorporation by the cells (mineralization) ([2]; lower concentrations, low dose (10^−6 M)): significantly stimulated
